Data taken from ChEMBL document CHEMBL4138123, “Design, synthesis and biological evaluation of novel pyrazolochalcones as potential modulators of PI3K/Akt/mTOR pathway and inducers of apoptosis in breast cancer cells” (Eur J Med Chem, 2017).
Activity calls are given as the source filed them. The calls are words filed in the database; no cut-off is given here.

Columns and labels:
MCF7 [1] = assay: Upregulation of BAX mRNA expression in human MCF7 cells at 2 uM after 48 hrs by qRT-PCR analysis; assay type: functional, cell-based
MCF7 [2] = assay: Induction of intrinsic apoptosis in human MCF7 cells assessed as effect on mitochondrial membrane depolarization by measuring mean fluorescence intensity at 2 uM after 18 hrs by DiOC6 staining-based FACS analysis (reference value: 463); assay type: functional
MCF7 [3] = assay: Upregulation of PTEN mRNA expression in human MCF7 cells at 2 uM after 48 hrs by qRT-PCR analysis; assay type: functional, cell-based
MCF7 [4] = assay: Cell cycle arrest in human MCF7 cells assessed as accumulation at G0/G1 phase at 2 uM after 24 hrs by flow cytometric analysis (reference value: 18.4%); assay type: functional
MCF7 [5] = assay: Downregulation of Akt protein expression in human MCF7 cells at 2 uM after 48 hrs by Alexa/DAPI staining-based immunofluorescence analysis; assay type: functional, cell-based
MCF7 [6] = assay: Induction of apoptosis in human MCF7 cells assessed as late apoptotic cells at 2 uM after 24 hrs by Annexin-V FITC/propidium iodide staining-based FACS analysis (reference value: 5.4%); assay type: functional
MCF7 [7] = assay: Downregulation of mTOR protein expression in human MCF7 cells at 2 uM after 24 hrs by Western blot analysis; assay type: functional, cell-based
MCF7 [8] = assay: Upregulation of PTEN protein expression in human MCF7 cells at 2 uM after 24 hrs by Western blot analysis; assay type: functional, cell-based
MCF7 [9] = assay: Cell cycle arrest in human MCF7 cells assessed as accumulation at S phase at 2 uM after 24 hrs by flow cytometric analysis (reference value: 79.1%); assay type: functional
MCF7 [10] = assay: Cell cycle arrest in human MCF7 cells assessed as accumulation at S phase at 2 uM after 48 hrs by flow cytometric analysis (reference value: 57.7%); assay type: functional
MCF7 [11] = assay: Downregulation of Akt protein expression in human MCF7 cells at 2 uM after 24 hrs by Western blot analysis; assay type: functional, cell-based
MCF7 [12] = assay: Cell cycle arrest in human MCF7 cells assessed as accumulation at G0/G1 phase at 2 uM after 48 hrs by flow cytometric analysis (reference value: 34.2%); assay type: functional
MCF7 [13] = assay: Induction of apoptosis in human MCF7 cells assessed as viable cells at 2 uM after 24 hrs by Annexin-V FITC/propidium iodide staining-based FACS analysis (reference value: 93.9%); assay type: functional; settings: MCF7, 24 h, read-out: Activity
MCF7 [14] = assay: Upregulation of TP53 mRNA expression in human MCF7 cells at 2 uM after 48 hrs by qRT-PCR analysis; assay type: functional, cell-based
MCF7 [15] = assay: Cell cycle arrest in human MCF7 cells assessed as accumulation at G2/M phase at 2 uM after 24 hrs by flow cytometric analysis (reference value: 2.35%); assay type: functional
MCF7 [16] = assay: Induction of apoptosis in human MCF7 cells assessed as early apoptotic cells at 2 uM after 24 hrs by Annexin-V FITC/propidium iodide staining-based FACS analysis (reference value: 0.5%); assay type: functional
MCF7 [17] = assay: Induction of intrinsic apoptosis in human MCF7 cells assessed as effect on mitochondrial membrane depolarization at 2 uM after 5 hrs by DiOC6 staining-based FACS analysis relative to control; assay type: functional

SMILES	Activity (MCF7 [1])	Flu intensity (MCF7 [2])	Activity (MCF7 [3])	Activity (MCF7 [4]) [%]	Activity (MCF7 [5])	Activity (MCF7 [6]) [%]	Activity (MCF7 [7])	Activity (MCF7 [8])	Activity (MCF7 [9]) [%]	Activity (MCF7 [10]) [%]	Activity (MCF7 [11])	Activity (MCF7 [12]) [%]	viability at 2 µM (MCF7 [13]) [%]	Activity (MCF7 [14])	Activity (MCF7 [15]) [%]	Activity (MCF7 [16]) [%]	Activity (MCF7 [17]) [%]
COc1ccc(-c2cc(/C=C/C(=O)c3ccc(OC)c(OC)c3)[nH]n2)cc1	Active	355	Active	15.3	Active	4.4	Active	Active	66.1	38.9	Active	44.6	93.8	Active	18.6	1.1	–
COc1cc(C(=O)/C=C/c2cc(-c3cc(OC)c(OC)c(OC)c3)n[nH]2)cc(OC)c1OC	Active	637	Active	16.6	Active	11.2	Active	Active	73.1	33	Active	62	84.6	Active	10.3	3.1	–
COc1ccc(C(=O)/C=C/c2cc(-c3cc(OC)c(OC)c(OC)c3)n[nH]2)cc1OC	Active	294	Active	30.8	Active	4.2	Active	Active	29.3	43	Active	43.9	94.3	Active	39.9	1.4	–
COc1ccc(C(=O)/C=C/c2cc(-c3cc(OC)c(OC)c(OC)c3)n[nH]2)cc1	Active	–	Active	–	Active	–	Active	Active	–	–	Active	–	–	Active	–	–	–
COc1cc(C(=O)/C=C/c2cc(-c3ccc4c(c3)OCO4)n[nH]2)cc(OC)c1OC	Active	313	Active	35.4	Active	8.4	Active	Active	0	59.1	Active	39	89.2	Active	64.6	0.7	3.4
